Results taken from patent US9399649B2, “Compounds for treating spinal muscular atrophy” (PTC Therapeutics Inc., priority 2012, dated 2016).

Legend:
[1] = test system: full length SMN2 minigene mRNA containing SMN2 exon 7; assay: SMN2 minigene mRNA splicing RT-qPCR assay in cultured cells; type: cell-based, human; conditions: Homo sapiens, HEK293-H; HEK293H cells stably transfected with SMN2-A minigene, 24 hours, 7-point concentration curve; concentration giving 1.5-fold full length SMN2 mRNA vs vehicle; read-out: EC1.5x for production of full length SMN2 mRNA
Description: The reverse transcription-quantitative PCR-based (RT-qPCR) assay is used to quantify the level of the full length SMN2 minigene mRNA containing SMN2 exon 7 in a HEK293H cell line stably transfected with said minigene and treated with a test compound.
HEK293H cells stably transfected with the SMN2-A minigene construct described above (10,000 cells/well) are seeded in 200 ut, of cell culture medium (DMEM plus 10% FBS, with 200 μg/mL hygromycin) in 96-well flat-bottom plates and the plate is immediately swirled to ensure proper dispersal of cells, forming an even monolayer of cells. Cells are allowed to attach for at least 4-6 hours. Test compounds are serially diluted 3.16-fold in 100% DMSO to generate a 7-point concentration curve. A solution of test compound (1 μL, 200× in DMSO) is added to each cell-containing well and the plate is incubated for 24 hours in a cell culture incubator (37° C., 5% CO2, 100% relative humidity). 2 replicates are prepared for each test compound concentration. The cells are then lysed in Cells-To-Ct lysis buffer and the lysate is stored at −80° C.
Primer SMN Forward A (SEQ ID NO. 1) hybridizes to a nucleotide sequence in exon 7 (nucleotide 22 to nucleotide 40), primer SMN Reverse A (SEQ ID NO. 2) hybridizes to a nucleotide sequence in the coding sequence of Firefly luciferase, SMN Probe A (SEQ ID NO. 3) hybridizes to a nucleotide sequence in exon 7 (nucleotide 50 to nucleotide 54) and exon 8 (nucleotide 1 to nucleotide 21). The combination of these three oligonucleotides detects only SMN1 or SMN2 minigenes (RT-qPCR) and will not detect endogenous SMN1 or SMN2 genes.
The SMN forward and reverse primers are used at final concentrations of 0.4 μM. The SMN probe is used at a final concentration of 0.15 μM. The GAPDH primers are used at final concentrations of 0.2 μM and the probe at 0.15 μM.
The SMN2-minigene GAPDH mix (15 μL total volume) is prepared by combining 7.5 μL of 2×RT-PCR buffer, 0.4 μL of 25×RT-PCR enzyme mix, 0.75 μL of 20×GAPDH primer-probe mix, 4.0075 μL of water, 2 μL of 10-fold diluted cell lysate, 0.06 μL of 100 μM SMN forward primer, 0.06 μL of 100 μM SMN reverse primer, and 0.225 μL of 100 μM SMN probe.
PCR is carried out at the following temperatures for the indicated time: Step 1: 48° C. (15 min); Step 2: 95° C. (10 min); Step 3: 95° C. (15 sec); Step 4: 60° C. (1 min); then repeat Steps 3 and 4 for a total of 40 cycles.
Each reaction mixture contains both SMN2-A minigene and GAPDH primersprobe sets (multiplex design), allowing simultaneous measurement of the levels of two transcripts.
Two SMN spliced products are generated from the SMN2 minigene. The first spliced product containing exon 7, corresponding to full length SMN2 mRNA, is referred to herein using the term “SMN2 minigene FL.” The second spliced product lacking exon 7 is referred to herein using the term “SMN2 minigene Δ7.”
The increase of SMN2 minigene FL mRNA relative to that in cells treated with vehicle control is determined from real-time PCR data using a modified ΔΔCt method (as described in Livak and Schmittgen, Methods, 2001, 25:402-8). The amplification efficiency (E) is calculated from the slope of the amplification curve for SMN2 minigene FL and GAPDH individually. The abundances of SMN2 minigene FL and GAPDH are then calculated as (1+E)^−Ct, where Ct is the threshold value for each amplicon. The abundance of SMN2 minigene FL is normalized to GAPDH abundance. The normalized SMN2 minigene FL abundance from test compound-treated samples is then divided by normalized SMN2 minigene FL abundance from vehicle-treated cells to determine the level of SMN2 FL mRNA relative to vehicle control.

Smn protein = Smn protein assay in cultured cells (SMN HTRF); type: cell-based, human; conditions: SMA patient fibroblast cells (GM03813), 48 hours, 7-point concentration data, relative to vehicle control
Description: The SMN HTRF (homogeneous time resolved fluorescence) assay is used to quantify the level of Smn protein in SMA patient fibroblast cells treated with test compounds.
Cells are thawed and cultured in DMEM-10% FBS for 72 hours. Cells are trypsinized, counted and re-suspended to a concentration of 25,000 cells/mL in DMEM-10% FBS. The cell suspensions are plated at 5,000 cells per well in a 96 well microtiter plate and incubated for 3 to 5 hours. […] Test compounds are serially diluted 3.16-fold in 100% DMSO to generate a 7-point concentration curve. 1 μL of test compound solution is transferred to cell-containing wells and cells are incubated for 48 hours in a cell culture incubator (37° C., 5% CO2, 100% relative humidity). Triplicate samples are set up for each test compound concentration. After 48 hours, the supernatant is removed from the wells and 25 μL of the RIPA lysis buffer, containing protease inhibitors, is added to the wells and incubated with shaking at room temperature for 1 hour. 25 μL of the diluent is added and then 35 μL of the resulting lysate is transferred to a 384-well plate, where each well contains 5 μL of the antibody solution (1:100 dilution of anti-SMN d2 and anti-SMN kryptate in SMN reconstitution buffer). The plate is centrifuged for 1 minute to bring the solution to the bottom of the wells, then incubated overnight at room temperature. Fluorescence for each well of the plate at 665 nm and 620 nm is measured on an EnVision multilabel plate reader (Perkin-Elmer).
The normalized fluorescence signal is calculated for each sample, Blank and vehicle control well by dividing the signal at 665 nm by the signal at 620 nm. Normalizing the signal accounts for possible fluorescence quenching due to the matrix effect of the lysate. The ΔF value (a measurement of Smn protein abundance as a percent value) for each sample well is calculated by subtracting the normalized average fluorescence for the Blank control wells from the normalized fluorescence for each sample well, then dividing this difference by the normalized average fluorescence for the Blank control wells and multiplying the resulting value by 100. The ΔF value for each sample well represents the Smn protein abundance from test compound-treated samples. The ΔF value for each sample well is divided by the ΔF value for the vehicle control wells to calculate the fold increase in Smn protein abundance relative to the vehicle control.

melting point [°C]	SMILES	EC (1.5-fold) [1] [µM]	maximum fold (Fold) increase of Smn protein (Smn protein)
220 to 222	O=c1oc(-c2ccc3c(c2)OC(F)(F)O3)cc2ccc(N3CCNCC3)cc12 [Cpd 6, 3-(2,2-difluoro-1,3-benzodioxol-5-yl)-7-(piperazin-1-yl)-1H-isochromen-1-one]	1 to 3	* (A maximum fold increase of ≦1.2 is indicated by one star (*))
324 to 326	O=c1oc(-c2nc3ccccc3s2)cc2ccc(N3CCNCC3)cc12 [Cpd 8, 3-(1,3-benzothiazol-2-yl)-7-(piperazin-1-yl)-1H-isochromen-1-one]	3 to 30	* (A maximum fold increase of ≦1.2 is indicated by one star (*))
310 to 312	C[C@@H]1CN(c2ccc3cc(-c4nc5ccccc5s4)oc(=O)c3c2)C[C@H](C)N1 [Cpd 9, 3-(1,3-benzothiazol-2-yl)-7-[(3R,5S)-3,5-dimethylpiperazin-1-yl]-1H-isochromen-1-one]	3 to 30	* (A maximum fold increase of ≦1.2 is indicated by one star (*))
277 to 279	O=c1oc(-c2nc3ccccc3s2)cc2ccc(N3CCCNCC3)cc12 [Cpd 10, 3-(1,3-benzothiazol-2-yl)-7-(1,4-diazepan-1-yl)-1H-isochromen-1-one]	1 to 3	* (A maximum fold increase of ≦1.2 is indicated by one star (*))
200 to 202	O=c1oc(-c2cc(F)cc(F)c2)cc2ccc(N3CCNCC3)cc12 [Cpd 14, 3-(3,5-difluorophenyl)-7-(piperazin-1-yl)-1H-isochromen-1-one]	1 to 3	** (a fold increase between >1.2 and ≦1.35 is indicated by two stars (**))
297 to 299	CN1CCN(c2ccc3cc(-c4ccc5c(c4)OCO5)oc(=O)c3c2)CC1 [Cpd 15, 3-(1,3-benzodioxol-5-yl)-7-(4-methylpiperazin-1-yl)-1H-isochromen-1-one]	3 to 30	* (A maximum fold increase of ≦1.2 is indicated by one star (*))
309 to 311	COc1ccc(-c2cc3ccc(N4C[C@@H](C)N[C@@H](C)C4)cc3c(=O)o2)cc1OC [Cpd 17, 3-(3,4-dimethoxyphenyl)-7-[(3R,5S)-3,5-dimethylpiperazin-1-yl]-1H-isochromen-1-one]	0.3 to 1	*** (a fold increase between >1.35 and ≦1.5 is indicated by three stars (***))
148 to 150	COc1cccc(-c2cc3ccc(N4CCCNCC4)cc3c(=O)o2)c1 [Cpd 21, 7-(l,4-diazepan-1-yl)-3-(3-methoxyphenyl)-1H-isochromen-1-one]	3 to 30	* (A maximum fold increase of ≦1.2 is indicated by one star (*))

The next lines start with the molecule.

SMILES	melting point [°C]	EC (1.5-fold) [1] [µM]	maximum fold (Fold) increase of Smn protein (Smn protein)
CN1CCCN(c2ccc3cc(-c4ccc5c(c4)OC(F)(F)O5)oc(=O)c3c2)CC1 [Cpd 7, 3-(2,2-difluoro-1,3-benzodioxol-5-yl)-7-(4-methyl-1,4-diazepan-1-yl)-1H-isochromen-1-one]	175 to 177	1 to 3	* (A maximum fold increase of ≦1.2 is indicated by one star (*))
CN1CCCN(c2ccc3cc(-c4nc5ccccc5s4)oc(=O)c3c2)CC1 [Cpd 11, 3-(1,3-benzothiazol-2-yl)-7-(4-methyl-1,4-diazepan-1-yl)-1H-isochromen-1-one]	270 to 272	0.3 to 1	* (A maximum fold increase of ≦1.2 is indicated by one star (*))
O=c1oc(-c2ccc3c(c2)OCO3)cc2ccc(N3CCNCC3)cc12 [Cpd 12, 3-(1,3-benzodioxol-5-yl)-7-(piperazin-1-yl)-1H-isochromen-1-one]	267 to 269	0.3 to 1	** (a fold increase between >1.2 and ≦1.35 is indicated by two stars (**))
O=c1oc(-c2ccc3c(c2)OCCO3)cc2ccc(N3CCNCC3)cc12 [Cpd 13, 3-(2,3-dihydro-1,4-benzodioxin-6-yl)-7-(piperazin-1-yl)-1H-isochromen-1-one]	253 to 255	1 to 3	* (A maximum fold increase of ≦1.2 is indicated by one star (*))
COc1cccc(-c2cc3ccc(N4CCNCC4)cc3c(=O)o2)c1 [Cpd 18, 3-(3-methoxyphenyl)-7-(piperazin-1-yl)-1H-isochromen-1-one]	140 to 142	0.3 to 1	* (A maximum fold increase of ≦1.2 is indicated by one star (*))
COc1cccc(-c2cc3ccc(N4CCN(C)CC4)cc3c(=O)o2)c1 [Cpd 19, 3-(3-methoxyphenyl)-7-(4-methylpiperazin-1-yl)-1H-isochromen-1-one]	140 to 142	3 to 30	* (A maximum fold increase of ≦1.2 is indicated by one star (*))
COc1cccc(-c2cc3ccc(N4C[C@@H](C)N[C@@H](C)C4)cc3c(=O)o2)c1 [Cpd 20, 7-[(3R,5S)-3,5-dimethylpiperazin-1-yl]-3-(3-methoxyphenyl)-1H-isochromen-1-one]	195 to 197	3 to 30	* (A maximum fold increase of ≦1.2 is indicated by one star (*))
COc1ccccc1-c1cc2ccc(N3CCN(C)CC3)cc2c(=O)o1 [Cpd 22, 3-(2-methoxyphenyl)-7-(4-methylpiperazin-1-yl)-1H-isochromen-1-one]	118 to 120	1 to 3	* (A maximum fold increase of ≦1.2 is indicated by one star (*))
